Structures are written as SMILES.

This data set is described as follows: CMR value (relative to BAY K 8644). The data set is classed as ADME.
Take `COC(=O)c1c(C)[nH]c(C)c1C(=O)c1ccccc1[S+]([O-])c1ccccc1` (stereo unspecified): the CMR worked out at 10.44.

In turn, `COC(=O)c1c(C)[nH]c(C)c1C(=O)c1ccccc1Nc1ccccc1` had a CMR of 9.96.

On to `COC(=O)c1c(C)[nH]c(C)c1C(=O)c1ccccc1Oc1ccccc1`, for which the CMR is listed as 9.75.

`COC(=O)c1c(C)[nH]c(C)c1C(=O)c1ccccc1C` displayed a CMR of 7.58.

In the case of `COC(=O)c1c(C)[nH]c(C)c1C(=O)c1ccccc1`, the CMR stood at 7.08.

Molecule `COC(=O)c1c(C)[nH]c(C)c1C(=O)c1ccccc1SCc1ccccc1` came in with a CMR of 10.87.

The molecule `COC(=O)c1c(C)[nH]c(C)c1C(=O)c1ccccc1S(=O)(=O)Cc1ccccc1` yielded a CMR of 10.93.

Molecule `COC(=O)c1c(C)[nH]c(C)c1C(=O)c1ccccc1C(=O)Oc1ccccc1O` displayed a CMR of 10.4.

Regarding `COC(=O)c1c(C)[nH]c(C)c1C(=O)c1ccccc1Cc1ccccc1[N+](=O)[O-]`, the CMR is on record as 10.78.

`COC(=O)c1c(C)[nH]c(C)c1C(=O)c1ccccc1-c1ccccc1` yielded a CMR of 9.6.

In the case of `COC(=O)c1c(C)[nH]c(C)c1C(=O)c1ccc([N+](=O)[O-])cc1Cl`, the CMR is 8.3.

Consider `COC(=O)c1c(C)[nH]c(C)c1C(=O)c1ccccc1Cc1ccc(N)cc1`, for which the CMR is reported as 10.43.

Molecule `COC(=O)c1c(C)[nH]c(C)c1C(=O)c1ccc(F)cc1Br` returned a CMR of 7.877.

In turn, `COC(=O)c1c(C)[nH]c(C)c1C(=O)c1ccccc1OC` had a CMR of 7.7.

`COC(=O)c1c(C)[nH]c(C)c1C(=O)c1ccccc1Cc1ccc(F)cc1` had a CMR of 10.08.

In turn, `COC(=O)c1c(C)[nH]c(C)c1C(=O)c1ccc(F)cc1Cc1ccccc1` had a CMR of 10.08.

With `COC(=O)c1c(C)[nH]c(C)c1C(=O)c1ccccc1Sc1ccccc1`, the CMR came to 10.4.

As to `COC(=O)c1c(C)[nH]c(C)c1C(=O)c1ccccc1CC1CCCCC1`, the CMR was 10.15.

Molecule `COC(=O)c1c(C)[nH]c(C)c1C(=O)c1ccccc1Br` had a CMR of 7.86.

As for `COC(=O)c1c(C)[nH]c(C)c1C(=O)c1ccccc1C(F)(F)F`, the CMR was determined as 7.6.

For the molecule `COC(=O)c1c(C)[nH]c(C)c1C(=O)c1ccc(C)cc1C`, the CMR is 8.01.

The molecule `COC(=O)c1c(C)[nH]c(C)c1C(=O)c1ccccc1OS(=O)(=O)c1ccc(C)cc1` gave a CMR of 10.62.

With `COC(=O)c1c(C)[nH]c(C)c1C(=O)c1ccccc1NC1CCCCC1`, the CMR is 10.06.

Take `COC(=O)c1c(C)[nH]c(C)c1C(=O)c1ccc(F)cc1Cc1ccc(F)cc1`: the CMR is 10.09.

`COC(=O)c1c(C)[nH]c(C)c1C(=O)c1ccccc1Sc1ccc([N+](=O)[O-])cc1` returned a CMR of 11.13.

`COC(=O)c1c(C)[nH]c(C)c1C(=O)c1ccccc1Oc1ccc([N+](=O)[O-])cc1` came in with a CMR of 10.47.

In the case of `COC(=O)c1c(C)[nH]c(C)c1C(=O)c1ccccc1CCc1ccccc1`, the CMR was found to be 10.52.

In turn, `COC(=O)c1c(C)[nH]c(C)c1C(=O)c1ccccc1F` yielded a CMR of 7.1.

`COC(=O)c1c(C)[nH]c(C)c1C(=O)c1ccccc1OCc1ccccc1` showed a CMR of 10.21.

The molecule `COC(=O)c1c(C)[nH]c(C)c1C(=O)c1ccccc1[S+]([O-])Cc1ccccc1` (stereo unspecified) registered a CMR of 10.9.

For `COC(=O)c1c(C)[nH]c(C)c1C(=O)c1ccccc1Nc1ccccn1`, the CMR turned out to be 9.75.

Take `COC(=O)c1c(C)[nH]c(C)c1C(=O)c1ccc(Cl)cc1Cl`: the CMR was 8.07.

Molecule `COC(=O)c1c(C)[nH]c(C)c1C(=O)c1ccccc1Cl` came in with a CMR of 7.58.

On to `COC(=O)c1c(C)[nH]c(C)c1C(=O)c1ccccc1I`, for which the CMR came to 8.39.

Turning to `COC(=O)c1c(C)[nH]c(C)c1C(=O)c1ccccc1Cc1ccc([N+](=O)[O-])cc1`, the CMR turned out to be 10.79.

Take `COC(=O)c1c(C)[nH]c(C)c1C(=O)c1ccccc1Cc1ccccc1`: the CMR was found to be 10.06.

These data come from ChEMBL document CHEMBL1127707, “The use of the GRID program in the 3-D QSAR analysis of a series of calcium-channel agonists” (J Med Chem, 1994).
